Test results: paper PMC10447463, “Data-mining unveils structure–property–activity correlation of viral infectivity enhancing self-assembling peptides” (Nature Communications, 2023)
Like-named read-outs stand apart in the source and are kept apart here.

Legend:
[1] = type: physicochemical
Outline: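 Preformed peptide fibrils (1 mg/mL) mixed with 50 µM ThT in PBS, 15 min at RT, fluorescence ex 440/em 488 nm versus PBS blank, triplicates. Zeta potential: peptides at 1 mg/mL in PBS pH 7.4, aged 1 d at RT, diluted in 1 mM KCl, Smoluchowski from electrophoretic mobility.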

[2] = Turbidity, derived count rate of scattered light; type: physicochemical; details: for Zeta Count Rate / kcps / Count Rate: derived count rate of scattered light; for Log Count Rate: log of derived count rate
Outline: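 Samples: 1 mg/mL in PBS pH 7.4 (from DMSO), 1 d at RT, then diluted in 1 mM KCl immediately before measurement. Triplicates, two independent runs averaged.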

[3] = relative to blank 42.1851851851852 a.u.
[4] = mean, std deviation in next column
[5] = Fig S8 panels A, C, asymmetric log errors
[6] = ThT fluorescence relative to blank (42.1851851851852 a.u.)
[7] = ThT fluorescence relative to blank, blank = 42.1851851851852
[8] = category 1 or 0 derived from the count rate, key not given
[9] = category 1 or 0 from count rate, key not given
[10] = mean, std deviation in separate column

| Substance | Tht category (> 1.5 to blank = +) ([1]; category 1/0) | Tht rel to blank (42.1851851851852) [1, 3] | Zeta Count Rate Category ([2]; category 1/0, no key printed) | Zeta Count Rate / kcps [2, 4] [kcps] | Tht rel to blank (42.1851851851852) [1, 6] | Tht rel to blank (42.1851851851852) [1, 7] | Zeta Count Rate Category ([2]; category 1 / 0, no key given) | Zeta Count Rate / kcps [2] [kcps] | Zeta Count Rate Category [2, 9] | Zeta Count Rate / kcps [2, 10] [kcps] | other results |
| --- | --- | --- | --- | --- | --- | --- | --- | --- | --- | --- | --- |
| CRFRFQF [CN10] | 1 (ThT. Cat is 1, if Rel. ThT >2) | 3.455 | 1 | 390.5 |  |  |  |  |  |  |  |
| CRFRVPF [CN8] | 0 (ThT-inactive (N-Fold <2)) | 0.9438 | 0 | 73.97 |  |  |  |  |  |  |  |
| CSISIQI [TM141] | 1 (ThT. Cat is 1, if Rel. ThT >2) | 15.04 | 1 | 10241.1 |  |  |  |  |  |  | Log Count Rate [2, 5]: 4.01; Log Count Rate ([2]; Fig S8 panels B, D): 4.01; Count Rate ([2]; Fig S8 panels B, D, turbidity): 10241.1 |
| CSISIQINM [TM145] | 1 (ThT. Cat is 1, if Rel. ThT >2) | 5.919 | 1 | 3291 |  |  |  |  |  |  |  |
| HHHHKIKIKIKIYYYY [TM6] | 1 (ThT. Cat is 1, if Rel. ThT >2) |  |  | 12792.53333 | 9.935 | 9.935 | 1 | 12792.53333 |  |  | Log Count Rate [2, 5]: 4.107; Log Count Rate ([2]; Fig S8 panels B, D): 4.107; Count Rate ([2]; Fig S8 panels B, D, turbidity): 12792.5; Zeta Count Rate Category [2, 8]: 1 |
| KAKAKAQA [TG15] | 0 (ThT-inactive (N-Fold <2)) |  |  | 76.93 | 1.151 | 1.151 | 0 | 76.93 | 0 |  |  |
| KAKAQA [JJA2 / TM153] | 0 (ThT-inactive (N-Fold <2)) | 1.172 | 0 | 20.93 | 1.172 |  |  |  | 0 | 20.93 |  |
| KAKAQANM [TM152] | 0 (ThT-inactive (N-Fold <2)) | 1.082 | 0 | 42.5 | 1.082 |  |  |  | 0 | 42.5 |  |
| KAKAQANMWQ [JG3] | 0 (ThT-inactive (N-Fold <2)) | 0.9886 | 0 | 56.17 | 0.9886 |  |  |  | 0 | 56.17 | Tht category (> 1.5 to blank = +) ([1]; FigS26): 0 (Tht category (> 1.5 to blank = +)) |
| KFKFKFQF [TG18] | 1 (ThT. Cat is 1, if Rel. ThT >2) |  |  | 1036 | 41.89 | 41.89 | 1 | 1036 | 1 |  |  |
| KFKFQF [JJA6] | 0 (ThT-inactive (N-Fold <2)) | 1.156 | 1 | 183.4 | 1.156 |  |  |  | 1 | 183.4 |  |
| KFKFQFNM [BL6a] | 0 (ThT-inactive (N-Fold <2)) | 1.202 | 1 | 131.8 | 1.202 |  |  |  | 1 | 131.8 |  |
| KFKFQFNMW |  |  |  |  |  |  |  |  |  |  | Tht category (> 2 to blank = +) ([1]; Fig S10 panel D): 0 (ThT-inactive (N-Fold <2)); ThT Cat, ([1]; ThT category, 1 if Rel. ThT >2): 0 (ThT-inactive (N-Fold <2)); ThT Cat. ([1]; ThT category, 1 if Rel. ThT >2): 0 (ThT-inactive (N-Fold <2)); ThT Cat. / ThT-Fluorescence (categorical) ([1]; ThT-active if fluorescence at least twice the control): 0 (ThT-inactive (N-Fold <2)); Log10 Count Rate ([2]; Log10 of derived count rate of scattered light (turbidity)): 2.785; Count Rate / kcps ([2]; derived count rate of scattered light at 633 nm, 173°, from zeta-potential measurement, 0.1 mg/mL in 1 mM KCl after 1 d at 1 mg/mL in PBS, turbidity / microscopic aggregation, mean of triplicate): 610 kcps; Log10 Count Rate ([2]; turbidity, Log10 of derived count rate of scattered light, Figure 3A source data): 2.785; Log10 Count Rate ([2]; turbidity, log10 of derived count rate of scattered light): 2.785 |
| KFKFQFNMWQ [JG4] | 1 (ThT. Cat is 1, if Rel. ThT >2) | 2.807 | 1 | 734.6 | 2.807 |  |  | 734.6 | 1 | 734.6 | Tht category (> 1.5 to blank = +) ([1]; FigS26): 1 (Tht category (> 1.5 to blank = +)); Tht category (> 1.5 to blank = +) ([1]; category from ThT rel to blank): 1 (ThT. Cat is 1, if Rel. ThT >2); Log Count Rate [2, 5]: 2.866; Log Count Rate ([2]; Fig S8 panels B, D): 2.866; Count Rate ([2]; Fig S8 panels B, D, turbidity): 734.63; Zeta Count Rate Category ([2]; category from count rate, key not given): 1 |
| KFKFQFW [TM71] | 1 (ThT. Cat is 1, if Rel. ThT >2) | 3.529 |  | 121.9 | 3.529 | 3.529 | 1 | 121.9 |  | 121.9 | Zeta Count Rate Category [2, 8]: 1 |
| KFKQFFNMWQ [JG5] | 0 (ThT-inactive (N-Fold <2)) |  |  | 236.9 | 1.589 | 1.589 | 1 | 236.9 | 1 |  |  |
| KIKIKIKIYYYY [JR7] |  |  |  | 9918 | 1.259 |  |  |  |  |  | Zeta Count Rate Category [2, 8]: 1 |
| KIKIKIQI [TG13] | 1 (ThT. Cat is 1, if Rel. ThT >2) |  |  | 999.1 | 2.036 | 2.036 | 1 | 999.1 | 1 |  |  |
| KIKIKIQINMWQ [VH9] |  |  |  | 1603.1 | 1.586 |  |  |  | 1 |  |  |
| KIKIQI [JJA4] | 0 (ThT-inactive (N-Fold <2)) | 1.097 | 1 | 108.3 | 1.097 |  |  |  | 1 | 108.3 |  |
| KIKIQIC [TM112 / CN11] | 1 (ThT. Cat is 1, if Rel. ThT >2) |  |  | 980.7 | 4.12 | 4.12 | 1 | 980.7 | 1 |  | Tht category (> 1.5 to blank = +) ([1]; FigS26): 1 (Tht category (> 1.5 to blank = +)); Log Count Rate [2, 5]: 2.992; Log Count Rate ([2]; Fig S8 panels B, D): 2.992; Count Rate ([2]; Fig S8 panels B, D, turbidity): 980.67; Zeta Count Rate Category [2, 8]: 1 |
